Here are results for one compound from US12139472B2, “Inhibitors of advanced glycation end products” (priority 2019, dated 2024).

A short description of data set [1]: Preparation of dosing solutions in 0.5% methyl cellulose and 0.1% Tween 20 in water. The conditions noted are these: 0.5% methyl cellulose. Format: physicochemical. On the procedure: Compound 5 (PTG-630 free base) and Compound 19 (PTG-630 HCl salt) solutions were prepared in 0.5% methyl cellulose and 0.1% Tween 20 in water for administration to animals by oral gavage (PO).
Compound 5 was administered at 10 mg/kg and 100 mg/kg. […] The solution was vortexed vigorously for minutes and then sonicated in a water bath for 5 min. The solution remained as a thick creamy yellowish suspension at pH 8. The solution for the 10 mg/kg free base dose (2 mg/ml solution) was easier to prepare. […] The final solution that was administered was a clear, light yellowish solution with few small particulates in suspension.
Compound 19 was administered at 10 mg/kg. […] The solution (2 mg/ml) was clear yellowish (although lighter than the Compound 5 solution at 2 mg/ml) with no particulates in suspension. The pH decreased to 3.

A further data set deals with T1, CYP2D6 (Homo sapiens, UniProt P10635).
T1 construct: Two studies were conducted in human liver microsomes (HLM); tissue Eurofins G232 panel; host or cells: human liver microsomes
T1 sequence (P10635 whole entry): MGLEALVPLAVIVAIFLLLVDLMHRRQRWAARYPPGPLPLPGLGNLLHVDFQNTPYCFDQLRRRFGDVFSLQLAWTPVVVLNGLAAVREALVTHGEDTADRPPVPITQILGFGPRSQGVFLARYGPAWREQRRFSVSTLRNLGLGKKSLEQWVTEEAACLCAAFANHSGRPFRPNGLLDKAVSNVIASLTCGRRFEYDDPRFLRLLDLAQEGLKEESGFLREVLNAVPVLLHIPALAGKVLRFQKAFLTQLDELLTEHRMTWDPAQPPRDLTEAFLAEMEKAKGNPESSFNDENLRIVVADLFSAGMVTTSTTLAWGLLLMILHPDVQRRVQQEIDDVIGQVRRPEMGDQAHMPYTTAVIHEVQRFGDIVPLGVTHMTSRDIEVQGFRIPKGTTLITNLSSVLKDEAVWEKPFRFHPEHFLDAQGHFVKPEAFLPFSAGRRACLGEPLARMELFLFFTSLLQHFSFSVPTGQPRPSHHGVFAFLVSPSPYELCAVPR
Nature of the data set: CYP2D6 inhibition (HLM), dextromethorphan. Format: in vitro ADME. The method, then:
Compound 5 (PTG-630 free base) and 7 additional compounds for CYP3A P450 inhibition.
Two studies were conducted in human liver microsomes (HLM). Lead candidate PTG-630 was tested using the Eurofins G232 panel (Drug Metab Dispos. 2001 January; 29(1):23-9), where inhibition was measured against seven CYP enzymes; CYP3A4 was tested using two different substrates, midazolam and testosterone. In a second study, inhibition of CYP3A4 (midazolam substrate only) was compared for 8 compounds of interest. The test protocol involved one-point measurements in duplicate, where inhibition was measured at a fixed 10 μM concentration of candidate inhibitors. In all cases, the substrate for each CYP enzyme was at a concentration equal to its specific Km value that was independently obtained from an 8-point dose-response study. Based on the observed value for percent inhibition for each test compound, we calculated of an IC50 assuming a competitive mode of inhibition. If percent inhibition for an inhibitor at a concentration of [I] is denoted by P, then: IC50=[I]*(100−P)/P In the single-point assay, [I] is 10 μM. If measured inhibition is 10%, then IC50=10*(100-10)/10=90 μM. […] As discussed in Lin et al. (J Pharm Sci. 2007 September; 96(9):2485-93; doi: 10.1002/jps.20884), CYP inhibition is broadly interpreted as being “potent” if IC50<1 μM, “moderate” if 1 μM<IC50<10 μM, and “weak” if IC50>10 μM.

Structures are written as SMILES.

Consider `Cc1ncc(CN2CCOCC2)c(-c2ncc[nH]2)c1O` [PTG-630], for which the dissolution in vehicle entry in data set [1] (2 mg/ml solution (10 mg/kg dose)) is listed as “few small particles remained”; in data set [1] (20 mg/ml solution (100 mg/kg dose)), “difficult to dissolve”. In addition, the “Estimated IC50” value at CYP2D6 (dextromethorphan, from one-point % inhibition at 10 μM, IC50=[I]*(100−P)/P) is recorded as “— None”. On CYP2D6 (substrate dextromethorphan at Km, Inhib Conc. 1.0E−05 M), the P % inhib was −0.83%.
